Reference: article PMC12336439 (Archiv Der Pharmazie, 2025)
Several values for one entry are separate records, joined by “and”; a condition that tells them apart may be missing. Equal entries are not always repeated. Where two headings read alike, the source gives them in different places.

What was measured:
USP7 = molecular target: T1, USP7 (Homo sapiens, UniProt Q93009); assay: Intact protein MS (UHPLC-ESI-MS), covalent modification of USP7; format: binding; details: 24 h incubation at 20°C, protein-to-compound ratio 1:31.25
T1 construct: USP7 catalytic domain (USP7CD) (208‐560); made in house
Description: The DSF results described above were validated by UHPLC‐ESI‐MS to verify possible covalent binding through a corresponding mass shift. Intact protein MS is an important screening method in irreversible‐covalent hit identification and is especially suitable for covalent fragment‐based drug discovery (FBDD). It allows for the identification of covalent binders by detecting covalent protein‐compound adducts, thus making use of the stability of the covalent bond.
USP7 was prepared in Tris buffer (25 mM Tris pH 8.0, 150 mM NaCl, 5 mM TCEP) with a protein‐to‐compound ratio of 1:31.25 and 5% (v/v) DMSO. The protein‐compound mixtures were all incubated at 20°C for 24 h on a rotating shaker. The analysis of intact protein mass was carried out using UHPLC‐ESI‐MS measurements, with data acquisition and data analysis as previously described.

[1] = molecular target: T2, USP7cd (USP7 catalytic domain) (Homo sapiens, UniProt Q93009); assay: Ub-AMC enzyme activity assay, IC50 determination; format: biochemical; details: 10 nM USP7cd, 500 nM Ub-AMC, 24 h pre-incubation at 20°C
T2 construct: USP7 catalytic domain (USP7CD) (208‐560); made in house
Description: Therefore, USP7 was incubated for 24 h with ten different compound concentrations, and IC50 values were then obtained with a fluorescent DUB substrate (Ub‐AMC) (Figure 9A–F). The pre‐incubation times were chosen to account for the slow covalent binding kinetics observed in the previous experiments.
The cleavage activity of USP7cd in the presence or absence of inhibitors was measured using Ubiquitin‐Aminomethylcoumarin (Ub‐AMC) (Enzo Life Sciences GmbH, Lörrach, Germany) as a fluorogenic substrate. The fluorescence was monitored using the CLARIOstar plate reader (BMG Labtech GmbH, Ortenberg, Germany) at 25°C at 360 nm excitation and 460 nm emission wavelengths. […] Each measurement was performed at least twice in duplicate. […] Ub‐AMC was added to a final concentration of 500 nM, and the fluorescence was measured after 1 h. The normalized dose‐response semi‐logarithmic curves were fitted using OriginPro2021 and the four‐parameter logistic function.
Different concentrations of compounds were pre-incubated with USP7 for 24 h at 20 °C in a rotating shaker in 25 mM Tris pH 8.0, 150mM NaCl, 5 mM TCEP supplemented with 0.2 mg/mL bovine serum albumin (BSA). Fluorescence was measured after 1 h of the addition of Ub-AMC. The dose response semi-logarithmic curves were fitted using OriginPro2021 and the four-parameter logistic function.

[2] = supplement table, read-out: Biological Activity (IC50)

T2 sequence (Q93009 with tags, fused parts or gaps): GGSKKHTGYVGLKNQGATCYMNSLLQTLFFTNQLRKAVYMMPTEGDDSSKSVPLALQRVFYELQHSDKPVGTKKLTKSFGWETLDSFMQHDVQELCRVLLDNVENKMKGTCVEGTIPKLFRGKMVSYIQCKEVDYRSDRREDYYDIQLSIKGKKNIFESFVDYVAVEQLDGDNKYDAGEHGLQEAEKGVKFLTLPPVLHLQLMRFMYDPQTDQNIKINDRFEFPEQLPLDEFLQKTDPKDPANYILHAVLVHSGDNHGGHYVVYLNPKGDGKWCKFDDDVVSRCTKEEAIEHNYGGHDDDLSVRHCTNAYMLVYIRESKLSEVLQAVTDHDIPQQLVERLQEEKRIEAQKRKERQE
T1 sequence (Q93009 with tags, fused parts or gaps): as above

Structure (SMILES)	protein species in deconvoluted mass spectrum of USP7 (USP7)	IC50 ([1]; read-out: IC50 USP7cd)	IC50 [1, 2] [µM]
Cn1ccc(-c2cccc3cnc(Nc4nc(F)ccc4[N+](=O)[O-])cc23)c1 [7b, N‐(6‐Fluoro‐3‐nitropyridin‐2‐yl)‐5‐(1‐methyl‐1H‐pyrrol‐3‐yl)isoquinolin‐3‐amine]	unmodified protein species as a main peak for both USP7 and USP7asoc	56.6 µM and 57 µM	56.6 ± 6.11
CCn1cc(-c2cccc3cnc(Nc4nc(F)ccc4[N+](=O)[O-])cc23)cn1 [7c, 5‐(1‐Ethyl‐1H‐pyrazol‐4‐yl)‐N‐(6‐fluoro‐3‐nitropyridin‐2‐yl)isoquinolin‐3‐amine]	mainly showed the attachment of a single molecule to USP7 and USP7asoc	36.2 µM and 36 µM	36.2 ± 2.21
CCCn1cc(-c2cccc3cnc(Nc4nc(F)ccc4[N+](=O)[O-])cc23)cn1 [7d, N‐(6‐Fluoro‐3‐nitropyridin‐2‐yl)‐5‐(1‐propyl‐1H‐pyrazol‐4‐yl)isoquinolin‐3‐amine]	single modified protein as the main signal	26.8 µM and 27 µM	26.8 ± 7.54
O=[N+]([O-])c1ccc(F)nc1Nc1cc2c(-c3cnn(C4CC4)c3)cccc2cn1 [7e, 5‐(1‐Cyclopropyl‐1H‐pyrazol‐4‐yl)‐N‐(6‐fluoro‐3‐nitropyridin‐2‐yl)isoquinolin‐3‐amine]	mono‐arylated USP7 and USP7asoc species as main peaks	48.4 µM and 48 µM	48.3 ± 5.68
O=[N+]([O-])c1ccc(F)nc1Nc1cc2c(-c3ccc(-c4ccncc4)cc3)cccc2cn1 [7i, N‐(6‐Fluoro‐3‐nitropyridin‐2‐yl)‐5‐[4‐(pyridin‐4‐yl)phenyl]isoquinolin‐3‐amine]	unmodified USP7 and USP7asoc as the main peak	> 1000 µM	
